Patent US20230322815A1, “NOVEL COMPOUNDS AND THERAPEUTIC USES THEREOF” (University of Huddersfield, priority 2020, published 2023)

What was measured:
[1] = Phosphatase activity: hydrolysis of 4-nitrophenyl phosphate; details: following mixing
Text: Only [L2Zn3(PO4)]^3+ was observed, coupled with a rapid yellowing of the solution due to the formation of 4-nitrophenolate.
The rate of substrate hydrolysis is also dependent upon the metal used in the self-assembly process.

[2] = Dephosphorylation of phosphorylated amino acid (31P NMR); details: 37° C.
Description: FIG. 6. Phosphatase activity of [L2Zn3]^6+. ^31P NMR spectra using different substrates including PhOPO3 (spectra A to D), serine phosphate (spectra E to H), threonine phosphate (spectra I to L) and tyrosine phosphate (spectra M to P). Specific details for each ^31P NMR spectra are as follows: Spectra A, E, I and M represent substrate alone (44 hrs incubated @ 37° C.); Spectra B, F, J and N represents [L2Zn3]^6+ plus substrate (t=0 min); Spectra C, G, K and O represents [L2Zn3]^6+ plus substrate incubated @ 37° C. for 19 hours; Spectra D, H, L and […] represents [L2Zn3]^6+ plus substrate incubated @ 37° C. for 44 hours. The ^31P NMR of [L2Zn3(PO4)]^3+ gives a signal at 8.6 ppm.
Given the importance of protein phosphorylation in inter- and intra-cellular signalling and to cell function, and its common dysregulation in cancers,^30, 31 it was next analysed whether the Zn^2+ complex could dephosphorylate the phosphorylated amino acids serine, threonine and tyrosine. […] Dephosphorylation of the amino acid threonine-OPO3^2− by the Zn^2+ complex was much slower however and after 48 hrs threonine-OPO3^2− was still the major species (FIG. 6, spectra I-L). Differences in reactivity towards different substrates can be attributed to both steric and electronic effects. […]

ARPE19 non-cancer cells = assay: Cellular ATP levels; format: cell-based, human; details: 100 μM, 20 h
Description: FIG. 20. The effects of [L2Cu3]^6+, [L2Zn3]^6+ and [L2Mn3]^6+ on cellular ATP levels in the ARPE19 non-cancer and HCT116 p53^+/+ cancer cells. The effects of 20 h treatment with the indicated concentrations of [L2Cu3]^6+, [L2Zn3]^6+, or [L2Mn3]^6+ on total cellular levels of ATP compared to levels in vehicle control-treated ARPE19 or HCT116^+/+ cells. n=3 biological repeats, students t-test (p values).
Cellular ATP studies: The effects of 20 h treatment with a range of different concentrations of [L2Cu3]^6+, [L2Zn3]^6+ and [L2Mn3]^6+ on total cellular ATP levels in HCT116 p53^+/+ and ARPE19 cells are presented in FIG. 20. Differential effects are observed depending on the metal in the complex, with [L2Mn3]^6+ having the most profound effects on both the HCT116 p53^+/+ cancer and ARPE19 non-cancer cells. 6.25 μM [L2Mn3]^6+ treatment for 20 h reduced ATP levels in the HCT116 p53^+/+ cancer cells to <50% with ATP levels declining less in the ARPE19 non-cancer cells but reaching ˜40% with 100 μM [L2Mn3]^6+ treatment. […] Effects of [L2Cu3]^6+ on ATP levels was much less, with ATP levels in the HCT116 cells reduced to <50% only at the highest concentration of 100 μM.

In the case of `[Zn+2].[Zn+2].[Zn+2].c1ccc(-c2csc(NCCN(CCNc3nc(-c4ccccn4)cs3)CCNc3nc(-c4ccccn4)cs3)n2)nc1.c1ccc(-c2csc(NCCN(CCNc3nc(-c4ccccn4)cs3)CCNc3nc(-c4ccccn4)cs3)n2)nc1` [[L2Zn3]^6+], the “hydrolysis of 4-nitrophenyl phosphate by 31P NMR” value [1] is reported as “almost immediate hydrolysis”, the “time to completion of dephosphorylation” value [2] is reported as 48 h and the “ATP levels compared to vehicle control” value (ARPE19 non-cancer cells) is reported as greater than 70%.
